Format in all cases: ADME, organism-based
The test system of data set [1] is Homo sapiens. Briefly: Oral clearance of Rosiglitazone evaluated after oral or intravenous administration of C-14 Rosiglitazone Maleate. The conditions noted are these: in vivo, dosed compound id 5, dosed compound name ROSIGLITAZONE MALEATE.
The test system of data set [2] is Homo sapiens. The data set can be described thus: (§1) Mean pharmacokinetic parameters for Rosiglitazone following single oral doses to 32 healthy fasted or fed subjects. Set-up: dose 8 mg, dose 2 mg, dose 1 mg, route oral. To be noted: in vivo, po, dosed compound id 50, dosed compound name ROSIGLITAZONE, gender male and female, regimen Single dose, tissue Plasma.
A short description of data set [3]: as §1. Set-up: dose 8 mg, dose 2 mg, dose 1 mg, route oral. The conditions noted are these: human, in vivo; dietary status Fasting, dose 1 mg, dosed compound id 50, dosed compound name ROSIGLITAZONE, gender male and female, regimen Single dose, route oral, tissue Plasma.
Setting [4] is: dietary status Fasting, dose 2 mg.
Setting [5] is: dietary status Fasting, dose 8 mg.

On to `CN(CCOc1ccc(CC2SC(=O)NC2=O)cc1)c1ccccn1.O=C(O)/C=C\C(=O)O` (configuration not stated) [ROSIGLITAZONE MALEATE], for which the values for the Excretion in data set [1] (tissue Feaces) and in data set [1] (tissue Urine) were 23% and 64%, respectively. Further, the CL/F is 2.89 L/h in data set [2] (setting [4]); 2.85 L/h in data set [2] (setting [5]); 2.97 L/h in data set [2] (dietary status Fed, dose 8 mg); 50.5 mL/min in data set [3]. Besides, the t1/2 in data set [2] (setting [4]) amounted to 3.15 h; in data set [2] (setting [5]) it was 3.37 h; in data set [2] (dietary status Fed, dose 8 mg), 3.59 h. Also, the “AUC(0 to inf)” value in data set [2] (dietary status Fed) was determined as 2890 ng·h/mL. Besides, in data set [2] (dietary status Fed), the Cmax turned out to be 432 ng/mL. For the same molecule, the half-life in data set [3] was 3.16 h.

In general, CL/F refers to clearance divided by bioavailability, as obtained after extravascular dosing. The Cmax is the maximum level reached in the sampled fluid or tissue. One may read the half-life as how long it takes for the measured level to halve. Read a low half-life as rapid decline.

(Values after ChEMBL document CHEMBL3832044, “DailyMed|setid=dd8d7ec8-79b0-4152-8789-d247c77232ce | ROSIGLITAZONE MALEATE - rosiglitazone maleate tablet|West-ward Pharmaceutical Corp”.)
